Data: ChEMBL document CHEMBL1909046, “DrugMatrix in vitro pharmacology data”

Key:
[1] = DRUGMATRIX: Tumor Necrosis Factor (TNF), Non-Selective radioligand binding (ligand: [125I] TNF-alpha); format: cell membranes, Membrane; settings: u-937; Not Active = under 50% inhibition at 10 µM
[2] = DRUGMATRIX: Calcium Channel Type L, Phenylalkylamine radioligand binding (ligand: [3H] (-)-Desmethoxyverapamil (D-888)); format: cell membranes, Rattus norvegicus, Wistar, Brain, Membrane; settings: Not Active = under 50% inhibition at 10 µM
[3] = DRUGMATRIX: Glutamate, NMDA, Agonism radioligand binding (ligand: [3H] CGP-39653); format: cell membranes, Rattus norvegicus, Wistar, Cerebral cortex, Membrane; settings: Not Active = under 50% inhibition at 10 µM
[4] = DRUGMATRIX: Phosphodiesterase PDE4 enzyme inhibition (substrate: [3H]cAMP + cAMP); settings: u-937; Not Active = under 50% inhibition at 10 µM
[5] = target: T1, Adenosine receptor A3 (Homo sapiens, UniProt P0DMS8); format: cell membranes, CHO-K1, Membrane; settings: for Ki: read-out: Ki;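 for all read-outs here: radioligand binding assay with AB-MECA serving as the labeled ligand; in other assays of this panel Not Active means under 50% inhibition at 10 µM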
T1 sequence (P0DMS8 whole entry): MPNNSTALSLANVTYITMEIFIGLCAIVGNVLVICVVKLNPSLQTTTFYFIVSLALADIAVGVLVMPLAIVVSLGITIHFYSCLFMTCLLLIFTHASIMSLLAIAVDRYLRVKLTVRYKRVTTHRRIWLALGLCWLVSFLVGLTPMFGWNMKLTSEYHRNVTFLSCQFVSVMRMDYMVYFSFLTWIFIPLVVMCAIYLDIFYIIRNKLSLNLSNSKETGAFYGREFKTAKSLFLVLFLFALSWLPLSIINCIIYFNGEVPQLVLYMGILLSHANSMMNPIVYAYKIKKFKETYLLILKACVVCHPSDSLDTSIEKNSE

[6] = target: T2, Cytochrome P450 1A2 (Homo sapiens, UniProt P05177); settings: bti-tn-5b1-4; note: in other assays of this panel Not Active means under 50% inhibition at 10 µM
T2 sequence (P05177 whole entry): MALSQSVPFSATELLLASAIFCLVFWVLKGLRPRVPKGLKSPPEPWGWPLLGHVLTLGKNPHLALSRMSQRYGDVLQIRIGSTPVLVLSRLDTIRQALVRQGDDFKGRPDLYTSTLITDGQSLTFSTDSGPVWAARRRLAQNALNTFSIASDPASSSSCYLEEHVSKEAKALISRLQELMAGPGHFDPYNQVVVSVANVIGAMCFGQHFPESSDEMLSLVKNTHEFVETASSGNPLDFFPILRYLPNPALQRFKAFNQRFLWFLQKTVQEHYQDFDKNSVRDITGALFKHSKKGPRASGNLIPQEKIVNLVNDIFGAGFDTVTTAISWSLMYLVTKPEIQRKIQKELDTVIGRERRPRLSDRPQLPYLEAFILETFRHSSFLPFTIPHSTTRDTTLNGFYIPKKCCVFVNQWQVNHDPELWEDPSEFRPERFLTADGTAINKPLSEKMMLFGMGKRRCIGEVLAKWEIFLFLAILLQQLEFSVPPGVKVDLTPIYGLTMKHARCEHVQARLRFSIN

Compound | IC50 [1] | Ki [1] | IC50 [2] | Ki [2] | IC50 [3] | Ki [3] | IC50 [4] | Ki [4] | IC50 ([5]; cho-k1) | IC50 [6] | Ki [6] | IC50 ([2]; read-out: IC50) [µM] | Ki ([2]; read-out: Ki) [µM] | IC50 ([5]; read-out: IC50) [µM] | Ki [5] [µM] | Ki ([5]; cho-k1) [µM]
CCOC(N)=O | Not Active | Not Active | Not Active | Not Active | Not Active | Not Active | Not Active | Not Active | Not Active | Not Active | Not Active |  |  |  |  | 
COc1ccc(CN2CCNCC2)c(OC)c1OC [TRIMETAZIDINE] | Not Active | Not Active | Not Active | Not Active | Not Active | Not Active | Not Active | Not Active | Not Active |  |  |  |  |  |  | 
CC(=O)O[C@H]1C[C@@H]2CC[C@@H]3[C@H](CC[C@@]4(C)[C@H]3C[C@H]([N+]3(C)CCCCC3)[C@@H]4OC(C)=O)[C@@]2(C)C[C@@H]1N1CCCCC1.[Br-] [VECURONIUM BROMIDE] | Not Active | Not Active | Not Active | Not Active | Not Active | Not Active | Not Active | Not Active | Not Active | Not Active | Not Active |  |  |  |  | 
C[C@@H]1C[C@H]2[C@@H]3CCC4=CC(=O)C=C[C@]4(C)C3=CC[C@]2(C)[C@H]1C(=O)CN1CCN(c2cc(N3CCCC3)nc(N3CCCC3)n2)CC1 [TIRILAZAD] | Not Active | Not Active |  |  | Not Active | Not Active | Not Active | Not Active | Not Active | Not Active | Not Active | 2.5 | 2.43 |  |  | 
CC(C)OC(=O)C(C)(C)Oc1ccc(C(=O)c2ccc(Cl)cc2)cc1 [FENOFIBRATE] |  |  |  |  |  |  |  |  |  | Not Active | Not Active |  |  | 5.7 | 3.22 | 
C[C@@H](O)[C@H]1C(=O)N2C(C(=O)O)=C(S[C@@H]3CN[C@H](C(=O)N(C)C)C3)[C@H](C)[C@H]12 [MEROPENEM] | Not Active | Not Active | Not Active | Not Active | Not Active | Not Active | Not Active | Not Active | Not Active | Not Active | Not Active |  |  |  |  | 
CC[C@@H](CO)NC(=O)[C@@H]1C=C2c3cccc4c3c(cn4C)C[C@H]2N(C)C1 [METHYSERGIDE] |  |  |  |  |  |  |  |  | Not Active | Not Active | Not Active |  |  |  |  | 
CC(C)(C)NC[C@H](O)COc1nsnc1N1CCOCC1 [TIMOLOL] | Not Active | Not Active | Not Active | Not Active | Not Active | Not Active | Not Active | Not Active | Not Active | Not Active | Not Active |  |  |  |  | 
CCN(CC)CC#CCOC(=O)C(O)(c1ccccc1)C1CCCCC1 (stereo not drawn) [OXYBUTYNIN] |  |  |  |  |  |  |  |  | Not Active | Not Active | Not Active |  |  |  |  | 
O=c1[nH]c2ccccc2n1CCCN1CCC(n2c(=O)[nH]c3cc(Cl)ccc32)CC1 [DOMPERIDONE] |  |  |  |  |  |  |  |  | Not Active |  |  |  |  |  |  | 
CC1=C(CC(=O)O)c2cc(F)ccc2/C1=C\c1ccc(S(C)(=O)=O)cc1 [EXISULIND] | Not Active | Not Active | Not Active | Not Active | Not Active | Not Active | Not Active | Not Active | Not Active | Not Active | Not Active |  |  |  |  | 
COc1ncnc(NS(=O)(=O)c2ccc(N)cc2)c1OC [SULFADOXINE] | Not Active | Not Active | Not Active | Not Active | Not Active | Not Active | Not Active | Not Active | Not Active | Not Active | Not Active |  |  |  |  | 
CC(=O)Nc1nnc(S(N)(=O)=O)s1 [ACETAZOLAMIDE] |  |  |  |  |  |  |  |  | Not Active | Not Active | Not Active |  |  |  |  | 
CO[C@H]1C[C@@H]2CC[C@@H](C)[C@@](O)(O2)C(=O)C(=O)N2CCCC[C@H]2C(=O)O[C@H]([C@H](C)C[C@@H]2CC[C@@H](O)[C@H](OC)C2)CC(=O)[C@H](C)/C=C(\C)[C@@H](O)[C@@H](OC)C(=O)[C@H](C)C[C@H](C)/C=C/C=C/C=C/1C [SIROLIMUS] | Not Active | Not Active | Not Active | Not Active | Not Active | Not Active | Not Active | Not Active | Not Active | Not Active | Not Active |  |  |  |  | 
OCCN1CCN(CCCN2c3ccccc3Sc3ccc(C(F)(F)F)cc32)CC1 [FLUPHENAZINE] |  |  |  |  |  |  |  |  |  |  |  |  |  | 11.9 | 6.75 | 
Cc1cn([C@H]2C[C@H](N=[N+]=[N-])[C@@H](CO)O2)c(=O)[nH]c1=O [ZIDOVUDINE] | Not Active | Not Active | Not Active | Not Active | Not Active | Not Active | Not Active | Not Active | Not Active | Not Active | Not Active |  |  |  |  | 
THIMEROSAL | Not Active | Not Active | Not Active | Not Active | Not Active | Not Active | Not Active | Not Active |  | Not Active | Not Active |  |  |  |  | 1.91
NC[C@H]1O[C@H](O[C@H]2[C@H](O)[C@@H](O[C@H]3O[C@H](CO)[C@@H](O)[C@H](N)[C@H]3O)[C@H](N)C[C@@H]2N)[C@H](N)C[C@@H]1O [TOBRAMYCIN] | Not Active | Not Active | Not Active | Not Active | Not Active | Not Active | Not Active | Not Active | Not Active |  |  |  |  |  |  | 
O=P(O)(O)C(O)(Cc1cccnc1)P(=O)(O)O [RISEDRONIC ACID] | Not Active | Not Active | Not Active | Not Active | Not Active | Not Active | Not Active | Not Active | Not Active | Not Active | Not Active |  |  |  |  | 
Nc1ccc(S(=O)(=O)Nc2nccs2)cc1 [SULFATHIAZOLE] | Not Active | Not Active | Not Active | Not Active | Not Active | Not Active | Not Active | Not Active | Not Active | Not Active | Not Active |  |  |  |  | 
Nc1ccc(S(=O)(=O)Nc2ncccn2)cc1 [SULFADIAZINE] | Not Active | Not Active | Not Active | Not Active | Not Active | Not Active | Not Active | Not Active | Not Active | Not Active | Not Active |  |  |  |  | 
CN[C@@H]1[C@H](O)[C@H](NC)[C@H]2O[C@@]3(O)C(=O)C[C@@H](C)O[C@H]3O[C@@H]2[C@H]1O [SPECTINOMYCIN] | Not Active | Not Active | Not Active | Not Active | Not Active | Not Active | Not Active | Not Active | Not Active |  |  |  |  |  |  | 
COc1cc(N)nc2[nH]c(-c3ccc(F)cc3)c(-c3ccncc3)c12 | Not Active | Not Active | Not Active | Not Active | Not Active | Not Active | Not Active | Not Active | Not Active | Not Active | Not Active |  |  |  |  | 
CN(CCOc1ccc(CC2SC(=O)NC2=O)cc1)c1ccccn1 (stereo not drawn) [ROSIGLITAZONE] | Not Active | Not Active | Not Active | Not Active | Not Active | Not Active | Not Active | Not Active | Not Active | Not Active | Not Active |  |  |  |  | 
O=c1n(CCCN2CCN(c3cccc(Cl)c3)CC2)nc2ccccn12 [TRAZODONE] |  |  |  |  |  |  |  |  | Not Active | Not Active | Not Active |  |  |  |  | 
CCS(=O)(=O)CCn1c([N+](=O)[O-])cnc1C [TINIDAZOLE] | Not Active | Not Active | Not Active | Not Active | Not Active | Not Active | Not Active | Not Active | Not Active |  |  |  |  |  |  | 
CN1C2CCCC1CC(NC(=O)c1nn(C)c3ccccc13)C2 (stereo not drawn) [GRANISETRON] |  |  |  |  |  |  |  |  | Not Active | Not Active | Not Active |  |  |  |  | 
